Laboratory results as given in article PMC12181400, “Leveraging viral genome sequences and machine learning models for identification of potentially selective antiviral agents” (Communications Chemistry, 2025).
Where a name gives a salt, the structure may show the parent alone. Read-outs that look alike come from different tables or passages of the source.

What was measured:
[1] = test system: SARS-CoV-2 Spike protein containing PPs, entry into HEK293-ACE2 cells; assay: microbe, parasite or virus in culture; assay type: cell-based; conditions: PP entry, HEK293-ACE2, 48 h, mean ± SD of two independent experiments; for IC50: Severe acute respiratory syndrome coronavirus 2, 11 concentrations
[2] = test system: MT-4 cells; design: method as in pmid 19265512; conditions: MT-4 cells in the presence of 20% NHS; ref pmid 19265512; read-out: antiviral EC90; cited from earlier work
[3] = test system: IN; design: method as in pmid 19265512; conditions: in vitro strand transfer assay; ref pmid 19265512; read-out: IC50, inhibition of IN; cited from earlier work
[4] = test system: hepatitis B surface antigen (HBsAg) secretion; design: method as in PMID 17723297; conditions: Hep G2.2.15 cell line; read-out: IC50, inhibition of HBsAg secretion; cited from earlier work
[5] = test system: cell viability (tox21-are-bla-p1); conditions: cited from earlier work
[6] = test system: cell viability (tox21-ap1-agonist-p1); conditions: cited from earlier work
[7] = test system: cell viability (tox21-ar-mda-kb2-luc-agonist-p3); conditions: cited from earlier work
[8] = test system: cell viability (tox21-ar-mda-kb2-luc-antagonist-p2); conditions: cited from earlier work
[9] = test system: cell viability (tox21-car-antagonist-p1); conditions: cited from earlier work
[10] = test system: cell viability (tox21-car-agonist-p1); conditions: cited from earlier work
[11] = test system: wild-type (WT) and drug-resistant HIV-1 isolates; design: method as in pmid 18043758; conditions: multiple wild-type and drug-resistant HIV-1 isolates; ref pmid 18043758; cited from earlier work
[12] = curve rank −9 to 9, 0 = inactive, ref NCATS Tox21 public data browser

## COc1ccc(-c2csc3ncnc(N(C)CCO)c23)cc1 [NCGC00608516]
[1]
  efficacy: −93.10 ± 32.33%
  IC50: 11700 ± 2820 nM

## O=C(Nc1nc(-c2ccc(F)cc2)cs1)c1c(F)cccc1F [NCGC00633127]
[1]
  efficacy: −67.42 ± 5.30%
  IC50: 4590 ± 370 nM

## COc1ccc(C(CNC(=O)c2ccc3ccccc3n2)N2CCCC2)cc1 (centres unmarked) [NCGC00622469]
[1]
  efficacy: −64.06 ± 9.68%
  IC50: 5910 ± 7000 nM

## COc1ccc(-c2nc3ccccc3n2Cc2ccccc2)cc1COc1ccc(NC(C)=O)cc1 [NCGC00166392]
[1]
  efficacy: −83.25 ± 8.42%
  IC50: 1370 nM

## Cn1c(=O)c(C(=O)NCCO)c(O)c2ncc(Cc3ccc(F)cc3)cc21 [GSK-364735]
[2]
  EC90: 40 nM
[3]
  IC50: 8 nM

## COc1cc2c3c(c1O)C1(C=CC(=O)C=C1)CC3N(C)CC2 (centres unmarked) [glaziovine]
[4]
  IC50: 8000 nM

## N=c1ccn(C2OC(COP(=O)(O)O)C(O)C2O)c(=O)[nH]1 (centres unmarked) [NCGC00014029]
[1]
  efficacy: −76.63 ± 14.92%
  IC50: 1310 ± 320 nM

## CC1(C)S[C@@H]2[C@H](NC(=O)Cc3ccccc3)C(=O)N2[C@H]1C(=O)O.CC1(C)S[C@@H]2[C@H](NC(=O)Cc3ccccc3)C(=O)N2[C@H]1C(=O)O.c1ccc(CNCCNCc2ccccc2)cc1 [Benzathine penicillin G]
[5]; [12]
  tox21-are-bla-p1-viability (curve rank): 0
[6]; [12]
  tox21-ap1-agonist-p1-viability (curve rank): 0
[7]; [12]
  tox21-ar-mda-kb2-luc-agonist-p3-viability (curve rank): 0
[8]; [12]
  tox21-ar-mda-kb2-luc-antagonist-p2-viability (curve rank): 0
[9]; [12]
  tox21-car-antagonist-p1-viability (curve rank): 0
[10]; [12]
  tox21-car-agonist-p1-viability (curve rank): 0

## O=C1NCC2(CCN(CCc3ccccc3)CC2)O1 [Fenspiride hydrochloride]
[5]; [12]
  tox21-are-bla-p1-viability (curve rank): 0
[6]; [12]
  tox21-ap1-agonist-p1-viability (curve rank): 0
[7]; [12]
  tox21-ar-mda-kb2-luc-agonist-p3-viability (curve rank): 0
[8]; [12]
  tox21-ar-mda-kb2-luc-antagonist-p2-viability (curve rank): 0
[9]; [12]
  tox21-car-antagonist-p1-viability (curve rank): 0
[10]; [12]
  tox21-car-agonist-p1-viability (curve rank): 0

## COc1cc(C(=O)NCc2ccc(OCCN(C)C)cc2)cc(OC)c1OC [Trimethobenzamide hydrochloride]
[5]
  tox21-are-bla-p1-viability (curve rank): 0
[6]
  tox21-ap1-agonist-p1-viability (curve rank): 0
[7]
  tox21-ar-mda-kb2-luc-agonist-p3-viability (curve rank): 0
[8]
  tox21-ar-mda-kb2-luc-antagonist-p2-viability (curve rank): 0
[9]
  tox21-car-antagonist-p1-viability (curve rank): 0
[10]
  tox21-car-agonist-p1-viability (curve rank): 0

## Nc1ccc(C(=O)O)cc1 [4-Aminobenzoic acid]
[5]
  tox21-are-bla-p1-viability (curve rank): 0
[6]
  tox21-ap1-agonist-p1-viability (curve rank): 0
[7]
  tox21-ar-mda-kb2-luc-agonist-p3-viability (curve rank): 0
[8]
  tox21-ar-mda-kb2-luc-antagonist-p2-viability (curve rank): 0
[9]
  tox21-car-antagonist-p1-viability (curve rank): 0
[10]
  tox21-car-agonist-p1-viability (curve rank): 0

## O=C1C(CC[S+]([O-])c2ccccc2)C(=O)N(c2ccccc2)N1c1ccccc1 (centres unmarked) [Sulfinpyrazone]
[5]
  tox21-are-bla-p1-viability (curve rank): 0
[6]
  tox21-ap1-agonist-p1-viability (curve rank): 0
[7]
  tox21-ar-mda-kb2-luc-agonist-p3-viability (curve rank): 0
[8]
  tox21-ar-mda-kb2-luc-antagonist-p2-viability (curve rank): 0
[9]
  tox21-car-antagonist-p1-viability (curve rank): 0
[10]
  tox21-car-agonist-p1-viability (curve rank): 0

## [H]/N=C(/N)NS(=O)(=O)c1ccc(N)cc1 [Sulfaguanidine]
[5]
  tox21-are-bla-p1-viability (curve rank): 0
[6]
  tox21-ap1-agonist-p1-viability (curve rank): 0
[7]
  tox21-ar-mda-kb2-luc-agonist-p3-viability (curve rank): 0
[8]
  tox21-ar-mda-kb2-luc-antagonist-p2-viability (curve rank): 0
[9]
  tox21-car-antagonist-p1-viability (curve rank): 0
[10]
  tox21-car-agonist-p1-viability (curve rank): 0

## Cc1c(NC(C)C)c(=O)n(-c2ccccc2)n1C [Ramifenazone]
[5]
  tox21-are-bla-p1-viability (curve rank): 0
[6]
  tox21-ap1-agonist-p1-viability (curve rank): 0
[7]
  tox21-ar-mda-kb2-luc-agonist-p3-viability (curve rank): 0
[8]
  tox21-ar-mda-kb2-luc-antagonist-p2-viability (curve rank): 0
[9]
  tox21-car-antagonist-p1-viability (curve rank): 0
[10]
  tox21-car-agonist-p1-viability (curve rank): 0

## CN(C(=O)c1c(O)c2ccccc2n(C)c1=O)c1ccccc1 [Roquinimex]
[5]
  tox21-are-bla-p1-viability (curve rank): 0
[6]
  tox21-ap1-agonist-p1-viability (curve rank): 0
[7]
  tox21-ar-mda-kb2-luc-agonist-p3-viability (curve rank): 0
[8]
  tox21-ar-mda-kb2-luc-antagonist-p2-viability (curve rank): 0
[9]
  tox21-car-antagonist-p1-viability (curve rank): 0
[10]
  tox21-car-agonist-p1-viability (curve rank): 0

## C=C(C)[C@@H]1CC[C@]2(C(=O)O)CC[C@]3(C)[C@H](CC[C@@H]4[C@@]5(C)CC[C@H](OC(=O)CC(C)(C)C(=O)O)C(C)(C)[C@@H]5CC[C@]43C)[C@@H]12 [bevirimat, 3-O-(3',3'-dimethylsuccinyl) betulinic acid]
[11]
  in vitro antiviral activity: 10 nM

## COc1cc(NS(=O)(=O)c2ccc(N)cc2)nc(OC)n1 [Sulfadimethoxine]
[5]
  tox21-are-bla-p1-viability (curve rank): 0
[6]
  tox21-ap1-agonist-p1-viability (curve rank): 0
[7]
  tox21-ar-mda-kb2-luc-agonist-p3-viability (curve rank): 0
[8]
  tox21-ar-mda-kb2-luc-antagonist-p2-viability (curve rank): 0
[9]
  tox21-car-antagonist-p1-viability (curve rank): 0
[10]
  tox21-car-agonist-p1-viability (curve rank): 0

## CC(=O)Nc1cc([As](=O)(O)O)ccc1O [Acetarsol]
[5]; [12]
  tox21-are-bla-p1-viability (curve rank): 0
[6]; [12]
  tox21-ap1-agonist-p1-viability (curve rank): 0
[7]; [12]
  tox21-ar-mda-kb2-luc-agonist-p3-viability (curve rank): 0
[8]; [12]
  tox21-ar-mda-kb2-luc-antagonist-p2-viability (curve rank): 0
[9]; [12]
  tox21-car-antagonist-p1-viability (curve rank): 0
[10]; [12]
  tox21-car-agonist-p1-viability (curve rank): 0

## O=C(CCBr)N1CCN(C(=O)CCBr)CC1 [Pipobroman]
[5]
  tox21-are-bla-p1-viability (curve rank): 0
[6]
  tox21-ap1-agonist-p1-viability (curve rank): 0
[7]
  tox21-ar-mda-kb2-luc-agonist-p3-viability (curve rank): 0
[8]
  tox21-ar-mda-kb2-luc-antagonist-p2-viability (curve rank): 0
[9]
  tox21-car-antagonist-p1-viability (curve rank): 0
[10]
  tox21-car-agonist-p1-viability (curve rank): 0

## CCOC(=O)c1cncn1[C@H](C)c1ccccc1 [Etomidate]
[5]; [12]
  tox21-are-bla-p1-viability (curve rank): 0
[6]; [12]
  tox21-ap1-agonist-p1-viability (curve rank): 0
[7]; [12]
  tox21-ar-mda-kb2-luc-agonist-p3-viability (curve rank): 0
[8]; [12]
  tox21-ar-mda-kb2-luc-antagonist-p2-viability (curve rank): 0
[9]; [12]
  tox21-car-antagonist-p1-viability (curve rank): 0
[10]; [12]
  tox21-car-agonist-p1-viability (curve rank): 0

## O=C(Oc1ccccc1C(=O)O)c1ccccc1O [Salsalate]
[5]
  tox21-are-bla-p1-viability (curve rank): 0
[6]
  tox21-ap1-agonist-p1-viability (curve rank): 0
[7]
  tox21-ar-mda-kb2-luc-agonist-p3-viability (curve rank): 0
[8]
  tox21-ar-mda-kb2-luc-antagonist-p2-viability (curve rank): 0
[9]
  tox21-car-antagonist-p1-viability (curve rank): 0
[10]
  tox21-car-agonist-p1-viability (curve rank): 0
